From patent US10059955B2, “Hibiscus cannabinus feruloyl-CoA:monolignol transferase” (Wisconsin Alumni Research Foundation (WARF), priority 2011, dated 2018)
Entries after “also recorded” stand apart in the source; their conditions may differ.

Columns and labels:
[1] = system: feruloyl-CoA:monolignol transferase from Angelica sinensis; assay: FMT enzymatic assay with purified recombinant Angelica sinensis FMT (UPLC detection of product); type: biochemical; conditions: for product formed from acyl-CoA donor substrate: coniferyl alcohol as acceptor, FIGS. 2, 6, 7; for enzyme activity with monolignol as acyl acceptor substrate: feruloyl-CoA as acyl donor, FIGS. 2, 4, 5
Procedure: The feruloyl-CoA, p-coumaroyl-CoA, and caffeoyl-CoA substrates used in the FMT assay were enzymatically synthesized using the tobacco 4-coumarate-CoA-ligase (4CL) with a c-terminal HIS tag in pCRT7/CT TOPO, provided by Eran Pichersky. Following a method modified from Beuerle and Pichersky (Anal. Biochem. 302(2): 305-12 (2001)) 3.3 mg of ferulic acid, coumaric acid or caffeic acid, 2 mg coenzyme A, and 6.9 mg ATP were added to 50 mM Tris-hydrochloride pH 8 and 2.5 mM magnesium chloride in a final volume of 10 ml. The reaction was started by adding 0.25 mg 4CL, protein purified as described by the method of Beurerle and Pichershy. After a five-hour incubation at room temperature, additional 6.9 mg ATP, 2 mg coenzyme A, and 0.25 mg purified 4CL were added and the reaction was incubated overnight. The CoA esters were purified on an SPE cartridge as described in Beuerle and Pichersky (2001).
(§1) The FMT activity assay contained 100 mM MOPS pH 6.8, 1 mM dithiothreitol (DTT), 1 mM feruloyl-CoA, 1 mM coniferyl alcohol, 3.9 μg of purified FMT protein and deionized water to a volume of 50 μL. After a 30-minute incubation, 1 μL of 10 M hydrochloric acid was added to stop the reaction. Because the product synthesized in the reaction, coniferyl ferulate (CAFA), is insoluble, 50 μL of methanol was added to solubilize the CAFA. Prior to UPLC, protein and insoluble material were removed by filtering through an Amicon Ultracel 10K membrane filter (Millipore). The flow-through was analyzed using an Acquity Ultra Performance LC with an Acquity UPLC BEH C18 1.7 μm 2.1×100 mm column and the Acquity Console and Empower 2 Software, all from Waters Corporation. The solvents used in this method were solvent A, 0.1% trifluoroacetic acid, and solvent B, 100% acetonitrile. Samples were analyzed using the following gradient conditions, 13% B, for 5 minutes, 1 minute linear gradient to 42% B, held for 4 minutes, 1 minute linear gradient to 100% B, held for 1 minutes and 3 minutes at 13% B with a flow rate of 0.3 ml/minute. This method was then used to analyze a 10 μL injection of each assay reaction; standards for each of the substrates along with chemically synthesized CAFA were used to determine retention times for each compound.
Purified recombinant enzyme was assayed for FMT activity using a reaction mixture containing 2 mM coniferyl alcohol, […], 100 mM HEPES pH 7.4 and 1 mM DTT. The second most abundant BAHD acyltransferase gene when incubated with Coniferyl alcohol and feruloyl-CoA produced a compound with the retention time of authentic coniferyl ferulate (CAFA) (FIG. 2). […] The addition of methanol to 50% after stopping the enzyme with acid was required to analyze the product by UPLC. The insolubility of the product made partial purification easy as the product was separated from the substrates by centrifugation.

[2] = Solubility of the assay product coniferyl ferulate in the aqueous reaction mixture; type: physicochemical; conditions: before addition of methanol to 50%
Procedure: as §1, with “compound. […]” for “compound.”

[3] = system: Hibiscus cannabinus FMT; assay: FMT enzymatic assay with purified Kenaf FMT (UPLC detection of coniferyl ferulate); type: biochemical; conditions: Ni2+ column fractions 29 and 30; 1 mM feruloyl CoA, 1 mM coniferyl alcohol, pH 6, 45 min; FIG. 12B
Procedure: The feruloyl CoA, p-coumaroyl CoA, and caffeoyl CoA substrates used in the FMT assay were enzymatically synthesized using the tobacco 4-coumarate CoA-ligase (4CL) with a c-terminal HIS tag in pCRT7/CT TOPO. Following a method modified from Beuerle and Pichersky (2001) 3.3 mg of ferulic acid, coumaric acid or caffeic acid, 2 mg coenzyme A, and 6.9 mg ATP were 50 mM Tris-hydrochloride pH 8, 2.5 mM magnesium chloride in a final volume of 10 ml. The reaction was started by adding 0.25 mg 4CL protein, purified as described by the method of Beurerle and Pichershy. After a five-hour incubation at room temperature, an additional 6.9 mg ATP, 2 mg coenzyme A, and 0.25 mg purified 4CL were added and the reaction was incubated overnight. […]
The FMT activity assay contained 100 mM sodium phosphate buffer pH 6, 1 mM dithiothreitol (DTT), 1 mM feruloyl CoA, 1 mM coniferyl alcohol, 0.5 μg of purified Kenaf FMT protein and deionized water to a volume of 50 μLL. […] The flow-through was analyzed using an Acquity Ultra Performance LC with an Acquity UPLC BEH C18 1.7 μm 2.1×100 mm column and the Acquity Console and Empower 2 Software, all from Waters Corporation. […] Samples were analyzed using the following gradient conditions, 13% B, for 5 minutes, 1 minute linear gradient to 42% B, held for 4 minutes, 1 minute linear gradient to 100% B, held for 1 minute and 3 minutes at 13% B with a flow rate of 0.3 ml/minute. […]

[4] = system: Angelica sinensis FMT; assay: FMT enzyme assay of transgenic poplar leaf extracts; type: biochemical; conditions: extracts from transgenic hybrid poplar expressing YFP-FMT; none in wild type or no enzyme control; FIG. 10B
From the text: Hybrid poplar (Populus alba×grandidentata) was transformed using Agrobacterium tumefaciens EHA105 employing a common leaf disk inoculation. Two constructs were created to drive the expression of FMT in poplar: 1) 35S::YFP-FMT (cauliflower mosaic virus ubiquitous 35S promoter with an N-terminal tagged Yellow Fluorescent Protein), and 2) CesA8::YFP-FMT (poplar xylem-specific secondary cell wall specific cellulose synthase 8 promoter with an N-terminal tagged Yellow Fluorescent Protein). The binary plasmids were inserted into EHA105 using the freeze-thaw technique, and incubated overnight in liquid Woody Plant Media (WPM) supplemented with 100 μM acetosyringone. Leaf disks were cut and co-cultured with EHA105 for one hour at room temperature, blotted dry and plated abaxailly onto WPM supplemented with 0.1 μM each α-naphthalene acetic acid (NAA), 6-benzylaminopurine (BA), and thiadiazuron (TDZ) and solidified with 3% (w/v) agar and 1.1% (w/v) phytagel (WPM 0.1/0.1/0.1). […]
Purification of YFP-FMT was via GFPtrap_A (Chromotek) following the manufactures guidelines. […] These samples were analyzed by western blot and the UPLC method described in the Examples above. Formation of coniferyl ferulate was also detected by comparison of the UPLC traces of leaf extracts with authentic coniferyl ferulate.

[5] = system: Angelica sinensis feruloyl-CoA:monolignol transferase; assay: FMT enzyme assay of transgenic Arabidopsis stems; type: biochemical; conditions: none with empty vector, FIG. 11B
From the text: Arabidopsis were transformed by standard procedures with the Angelica sinensis feruloyl-CoA:monolignol transferase nucleic acids described herein. […] FMT expression was detected by Reverse Transcriptase PCR of […] isolated from the transgenic Arabidopsis leaves. Enzymatic activity by the expressed FMT was detected using the assay described in Example 1.

Row | Molecule | product formed from acyl-CoA donor substrate [1] | enzyme activity with monolignol as acyl acceptor substrate [1] | also measured
1 | CC(C)(COP(=O)(O)OP(=O)(O)OC[C@H]1O[C@@H](n2cnc3c(N)ncnc32)[C@H](O)[C@@H]1OP(=O)(O)O)[C@@H](O)C(=O)NCCC(=O)NCCSC(=O)/C=C/c1ccc(O)c(O)c1 [caffeoyl-CoA] | very little product |  | 
2 | COc1cc(/C=C/CO)ccc1O [coniferyl alcohol] |  | active | 
3 | COc1cc(/C=C/COC(=O)/C=C/c2ccc(O)c(OC)c2)ccc1O [coniferyl ferulate] |  |  | solubility of product in water / assay mixture [2]: mostly insoluble in water; also recorded: partially insoluble
4 | COc1cc(/C=C/C(=O)SCCNC(=O)CCNC(=O)[C@H](O)C(C)(C)COP(=O)(O)OP(=O)(O)OC[C@H]2O[C@@H](n3cnc4c(N)ncnc43)[C@H](O)[C@@H]2OP(=O)(O)O)ccc1O [feruloyl-CoA] | substantial product |  | 
5 | CC(C)(COP(=O)(O)OP(=O)(O)OC[C@H]1O[C@@H](n2cnc3c(N)ncnc32)[C@H](O)[C@@H]1OP(=O)(O)O)[C@@H](O)C(=O)NCCC(=O)NCCSC(=O)/C=C/c1ccc(O)cc1 [p-coumaroyl-CoA] | very little product |  | 
6 | OC/C=C/c1ccc(O)cc1 [p-coumaryl alcohol] |  | active | 
7 | COc1cc(/C=C/CO)cc(OC)c1O [sinapyl alcohol] |  | active | 
8 | Hibiscus cannabinus FMT: Hibiscus cannabinus (Kenaf) feruloyl-CoA:monolignol transferase enzyme, SEQ ID NO:9, expressed with N-terminal 6xHis tag in E. coli (protein, N-terminal 6xHis tag) MATHSTIMFSVDRNDVVFVKPFKPTPSQVLSLSTIDNDPNLEIMCHTVFVYQANADFDVKPKDPASIIQEALSKLLVYYYPLAGKMKRETDGKLRIACTADDSVPFLVATADCKLSSLNHLDGIDVHTGKEFALDFASESDGGYYHPLVMQVTKFICGGFTIALSLSHSVCDGFGAAQIFQALTELASGRNEPSVKPVWERQLLVAKPAEEIPRSIVDKDLSAASPYLPTTDIVHACFYVTEESIKTLKMNLIKESKDESITSLEVLSAYIWRARFRALKLSPDKTTMLGMAVGIRRTVKPRLPEGYYGNAFTSANTAMTGKELDQGPLSKAVKQIKESKKLASENDYIWNLMSINEKLRELNSKFEAAAGSTMVITDWRRLGLLEDVDFGWKGSVNMIPLPWNMFGYVDLVLLLPPCKLDQSMKGGARVLVSFPTAAIAKFKEEMDALKHDNKVAGDALVI |  |  | FMT activity: production of coniferyl ferulate from coniferyl alcohol and feruloyl-CoA [3]: production of coniferyl ferulate (3) is visible
9 | Angelica sinensis FMT: Angelica sinensis clone Dq155 pdest17 feruloyl-CoA:monolignol transferase enzyme, SEQ ID NO:2 (protein) MTIMEVQVVSKKMVKPSVPTPDHHKTCKLTAFDQIAPPDQVPIIYFYNSSNIHNIREQLVKSLSETLTKFYPLAGRFVQDGFYVDCNDEGVLYVEAEVNIPLNEFIGQAKKNIQLINDLVPKKNFKDIHSYENPIVGLQMSYFKCGGLAICMYLSHVVADGYTAAAFTKEWSNTTNGIINGDQLVSSSPINFELATLVPARDLSTVIKPAVMPPSKIKETKVVTRRFLFDENAISAFKDHVIKSESVNRPTRVEVVTSVLWKALINQSKLPSSTLYFHLNFRGKTGINTPPLDNHFSLCGNFYTQVPTRFRGGNQTKQDLELHELVKLLRGKLRNTLKNCSEINTADGLFLEAASNFNIIQEDLEDEQVDVRIFTTLCRMPLYETEFGWGKPEWVTIPEMHLEIVFLLDTKCGTGIEALVSMDEADMLQFELDPTISAFAS |  |  | FMT activity in leaf extracts (product peak at retention time of authentic coniferyl ferulate) [4]: FMT activity was identified; FMT activity in ground stems (coniferyl ferulate detected) [5]: enzymatically active
